Settings: Quantum Design PPMS relaxation calorimeter; for molar entropy: 101.33 kPa

O=P([O-])([O-])OP(=O)([O-])[O-].[Fe+2].[Fe+2] [iron(II) pyrophosphate]
Settings | molar entropy [J/K/mol]
1 K, Crystal 2 | 0.08421
2 K, Crystal 2 | 0.1749
3 K, Crystal 2 | 0.2781
4 K, Crystal 2 | 0.4026
5 K, Crystal 2 | 0.5598
6 K, Crystal 2 | 0.7639
7 K, Crystal 2 | 1.033
8 K, Crystal 2 | 1.379
9 K, Crystal 2 | 1.814
10 K, Crystal 2 | 2.349
11 K, Crystal 2 | 2.988
12 K, Crystal 2 | 3.726
13 K, Crystal 2 | 4.55
14 K, Crystal 2 | 5.45
15 K, Crystal 2 | 6.422
16 K, Crystal 2 | 7.473
17 K, Crystal 2 | 8.609
18 K, Crystal 2 | 9.826
19 K, Crystal 1 | 11.08
20 K, Crystal 1 | 12.28
25 K, Crystal 1 | 16.82
30 K, Crystal 1 | 20.58
35 K, Crystal 1 | 24
40 K, Crystal 1 | 27.36
45 K, Crystal 1 | 30.72
50 K, Crystal 1 | 34.14
55 K, Crystal 1 | 37.63
60 K, Crystal 1 | 41.21
65 K, Crystal 1 | 44.87
70 K, Crystal 1 | 48.62
75 K, Crystal 1 | 52.44
80 K, Crystal 1 | 56.32
85 K, Crystal 1 | 60.25
90 K, Crystal 1 | 64.23
95 K, Crystal 1 | 68.25
100 K, Crystal 1 | 72.3
110 K, Crystal 1 | 80.43
120 K, Crystal 1 | 88.54
130 K, Crystal 1 | 96.61
140 K, Crystal 1 | 104.61
150 K, Crystal 1 | 112.55
160 K, Crystal 1 | 120.42
170 K, Crystal 1 | 128.21
180 K, Crystal 1 | 135.93
190 K, Crystal 1 | 143.57
200 K, Crystal 1 | 151.13
210 K, Crystal 1 | 158.6
220 K, Crystal 1 | 165.99
230 K, Crystal 1 | 173.3
240 K, Crystal 1 | 180.51
250 K, Crystal 1 | 187.62
260 K, Crystal 1 | 194.64
270 K, Crystal 1 | 201.56
273.15 K, Crystal 1 | 203.72
280 K, Crystal 1 | 208.38
290 K, Crystal 1 | 215.1
298.15 K, Crystal 1 | 220.5
300 K, Crystal 1 | 221.72

Settings | Triple point temperature [K]
Crystal 2 | 18.96

From the NIST ThermoML archive (doi:10.1016/j.jct.2013.02.001)
